pEC50, pIC50: −log10 of the molar value. In brackets after ≈: the same amount, converted by molar mass. Activity calls are given as the source filed them. No cut-off for these calls is given here.
Experiments:
Liver = test: Metabolic stability in mouse liver microsomes; assay type: ADME, Microsome
[1] = molecular target: T1, Inhibitor of nuclear factor kappa-B kinase subunit alpha (Homo sapiens, UniProt O15111)
T1 sequence (O15111 whole entry): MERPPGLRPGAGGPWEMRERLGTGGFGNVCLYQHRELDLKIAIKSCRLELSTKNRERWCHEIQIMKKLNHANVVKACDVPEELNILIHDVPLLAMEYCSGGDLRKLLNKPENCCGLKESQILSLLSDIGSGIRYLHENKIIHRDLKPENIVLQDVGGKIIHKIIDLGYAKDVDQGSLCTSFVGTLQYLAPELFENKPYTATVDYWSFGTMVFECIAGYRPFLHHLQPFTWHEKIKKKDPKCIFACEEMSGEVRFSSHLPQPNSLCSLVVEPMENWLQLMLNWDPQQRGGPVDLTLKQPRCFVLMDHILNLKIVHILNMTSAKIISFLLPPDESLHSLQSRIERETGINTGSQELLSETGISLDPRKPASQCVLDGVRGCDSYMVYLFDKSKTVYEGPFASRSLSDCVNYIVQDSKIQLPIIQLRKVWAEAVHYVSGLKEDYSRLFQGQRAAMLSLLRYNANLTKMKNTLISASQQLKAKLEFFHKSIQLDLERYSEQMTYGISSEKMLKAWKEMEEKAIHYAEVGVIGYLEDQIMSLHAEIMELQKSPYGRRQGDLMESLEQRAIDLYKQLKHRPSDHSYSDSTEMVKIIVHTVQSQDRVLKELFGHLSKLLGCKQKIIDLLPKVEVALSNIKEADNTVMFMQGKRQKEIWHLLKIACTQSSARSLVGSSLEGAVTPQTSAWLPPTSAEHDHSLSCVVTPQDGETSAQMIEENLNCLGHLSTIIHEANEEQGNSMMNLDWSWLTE

Liver microsomes = test: Metabolic stability in human liver microsomes; assay type: ADME, Microsome
[2] = Cmax in mouse at 10 mg/kg, po; assay type: ADME, organism-based; parameters: dose 10 mg/kg, route oral; settings: in vivo
[3] = Aqueous solubility in sodium phosphate buffer at pH 6.5; assay type: physicochemical
Jurkat = test: Inhibition of TNF-alpha-induced response in Jurkat cells; settings: Homo sapiens
[4] = molecular target: T2, Inhibitor of nuclear factor kappa-B kinase subunit beta (Homo sapiens, UniProt O14920)
T2 sequence (O14920 whole entry): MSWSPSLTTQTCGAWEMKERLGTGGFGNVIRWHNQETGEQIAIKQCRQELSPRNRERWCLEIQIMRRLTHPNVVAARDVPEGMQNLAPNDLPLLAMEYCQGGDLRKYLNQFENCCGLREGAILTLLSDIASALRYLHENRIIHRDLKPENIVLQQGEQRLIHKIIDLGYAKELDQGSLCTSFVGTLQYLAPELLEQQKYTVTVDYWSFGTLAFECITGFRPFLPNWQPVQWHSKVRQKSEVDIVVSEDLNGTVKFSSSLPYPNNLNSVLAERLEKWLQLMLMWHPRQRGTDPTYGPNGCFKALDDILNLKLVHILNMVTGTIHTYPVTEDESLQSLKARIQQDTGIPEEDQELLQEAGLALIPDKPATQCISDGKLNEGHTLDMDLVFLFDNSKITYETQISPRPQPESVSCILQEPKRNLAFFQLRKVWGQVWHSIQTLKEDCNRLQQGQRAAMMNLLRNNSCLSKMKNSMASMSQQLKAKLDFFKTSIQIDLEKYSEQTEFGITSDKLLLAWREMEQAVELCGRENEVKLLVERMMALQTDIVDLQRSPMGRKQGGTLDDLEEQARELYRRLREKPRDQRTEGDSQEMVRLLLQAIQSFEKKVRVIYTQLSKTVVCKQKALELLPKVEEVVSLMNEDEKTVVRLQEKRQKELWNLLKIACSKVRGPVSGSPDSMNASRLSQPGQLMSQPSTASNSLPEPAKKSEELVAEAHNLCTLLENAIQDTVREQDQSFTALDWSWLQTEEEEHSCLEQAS

[5] = AUC(1 to 4 hrs) in mouse at 10 mg/kg, po; assay type: ADME, organism-based; parameters: time upper 4 hr, time lower 1 hr, dose 10 mg/kg, route oral; settings: plasma
[6] = Tmax in mouse at 10 mg/kg, po; assay type: ADME, organism-based; parameters: dose 10 mg/kg, route oral; settings: in vivo
PBMC = test: Inhibition of LPS-induced TNFalpha production in PBMC; assay type: functional, cell-based; settings: Homo sapiens
[7] = Cytotoxicity against Jurkat cells by Alamar blue assay; settings: human, Jurkat cells
[8] = molecular target: T3, Inhibitor of nuclear factor kappa-B kinase subunit epsilon (Homo sapiens) (UniProt Q14164); test: Inhibition of IKKepsilon
T3 sequence (whole entry): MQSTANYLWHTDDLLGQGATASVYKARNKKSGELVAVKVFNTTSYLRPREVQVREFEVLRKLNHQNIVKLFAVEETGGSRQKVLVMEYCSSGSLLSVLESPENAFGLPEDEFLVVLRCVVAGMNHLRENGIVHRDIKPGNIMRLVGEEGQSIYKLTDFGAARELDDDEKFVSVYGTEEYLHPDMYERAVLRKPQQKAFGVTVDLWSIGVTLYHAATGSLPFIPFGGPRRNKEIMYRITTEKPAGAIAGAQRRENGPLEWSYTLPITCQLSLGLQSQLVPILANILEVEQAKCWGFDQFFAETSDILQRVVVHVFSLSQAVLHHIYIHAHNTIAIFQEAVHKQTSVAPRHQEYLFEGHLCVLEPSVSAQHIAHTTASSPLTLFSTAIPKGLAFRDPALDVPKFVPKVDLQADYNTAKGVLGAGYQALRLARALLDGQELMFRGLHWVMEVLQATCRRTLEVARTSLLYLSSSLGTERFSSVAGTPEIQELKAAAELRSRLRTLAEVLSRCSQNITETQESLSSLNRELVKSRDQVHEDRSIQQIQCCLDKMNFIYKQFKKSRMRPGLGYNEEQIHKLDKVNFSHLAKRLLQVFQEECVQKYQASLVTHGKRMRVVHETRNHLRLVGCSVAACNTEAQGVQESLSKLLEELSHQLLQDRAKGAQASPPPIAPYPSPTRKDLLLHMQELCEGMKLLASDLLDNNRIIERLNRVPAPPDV

[9] = Drug level in LPS-challenged mouse serum at 30 mg/kg after 2.5 hrs; assay type: ADME, organism-based; parameters: dose 30 mg/kg; settings: read-out: Activity
Mus musculus [10] = test: Reduction of LPS-induced TNFalpha release in mouse at 30 mg/kg administered 1 hr before LPS challenge; assay type: functional; parameters: scale not given: the % may be the effect or the level left
Mus musculus [11] = test: Reduction of LPS-induced TNFalpha release in mouse at 30 mg/kg administered 4 hrs before LPS challenge; assay type: functional; parameters: scale not given: the % may be the effect or the level left
[12] = Drug level in LPS-challenged mouse serum at 30 mg/kg after 5.5 hrs; assay type: ADME, organism-based; parameters: dose 30 mg/kg; settings: read-out: Activity
[13] = molecular target: Insulin-like growth factor 1 receptor (Homo sapiens) (UniProt P08069); test: Inhibition of IGF1R
[14] = molecular target: Receptor tyrosine-protein kinase erbB-2 (Homo sapiens) (UniProt P04626); test: Inhibition of Her2
[15] = molecular target: Epidermal growth factor receptor (Homo sapiens) (UniProt P00533); test: Inhibition of Her1
Homo sapiens [16] = organism: Homo sapiens; test: Inhibition of VEGF
[17] = molecular target: Tyrosine-protein kinase Lck (Homo sapiens) (UniProt P06239); test: Inhibition of LCK
Homo sapiens [18] = organism: Homo sapiens; test: Inhibition of PKA
[19] = molecular target: T4, Tyrosine-protein kinase ITK/TSK (Homo sapiens) (UniProt Q08881); test: Inhibition of EMT
T4 sequence (whole entry): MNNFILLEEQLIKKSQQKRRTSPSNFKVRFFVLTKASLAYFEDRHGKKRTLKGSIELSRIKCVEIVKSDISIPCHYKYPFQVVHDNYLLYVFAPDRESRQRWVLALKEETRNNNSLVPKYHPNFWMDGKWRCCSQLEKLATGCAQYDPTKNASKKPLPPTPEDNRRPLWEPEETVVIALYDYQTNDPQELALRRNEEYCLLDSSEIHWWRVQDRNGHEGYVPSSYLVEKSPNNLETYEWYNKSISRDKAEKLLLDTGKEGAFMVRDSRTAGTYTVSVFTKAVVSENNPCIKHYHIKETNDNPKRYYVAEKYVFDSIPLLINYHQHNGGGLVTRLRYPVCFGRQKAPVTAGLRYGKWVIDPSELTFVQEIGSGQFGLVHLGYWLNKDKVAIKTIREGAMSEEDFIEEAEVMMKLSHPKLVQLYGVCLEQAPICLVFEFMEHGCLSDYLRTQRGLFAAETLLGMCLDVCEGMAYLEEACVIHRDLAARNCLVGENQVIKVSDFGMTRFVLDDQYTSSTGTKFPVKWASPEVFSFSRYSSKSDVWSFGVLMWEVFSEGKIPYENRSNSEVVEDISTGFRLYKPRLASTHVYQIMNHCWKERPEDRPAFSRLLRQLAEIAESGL

[20] = molecular target: MAP kinase p38 (Homo sapiens) (UniProt O15264+Q15759+Q16539+P53778); test: Inhibition of p38; assay type: protein assay

Sequence of Receptor tyrosine-protein kinase erbB-2 (Homo sapiens) (P04626 whole entry): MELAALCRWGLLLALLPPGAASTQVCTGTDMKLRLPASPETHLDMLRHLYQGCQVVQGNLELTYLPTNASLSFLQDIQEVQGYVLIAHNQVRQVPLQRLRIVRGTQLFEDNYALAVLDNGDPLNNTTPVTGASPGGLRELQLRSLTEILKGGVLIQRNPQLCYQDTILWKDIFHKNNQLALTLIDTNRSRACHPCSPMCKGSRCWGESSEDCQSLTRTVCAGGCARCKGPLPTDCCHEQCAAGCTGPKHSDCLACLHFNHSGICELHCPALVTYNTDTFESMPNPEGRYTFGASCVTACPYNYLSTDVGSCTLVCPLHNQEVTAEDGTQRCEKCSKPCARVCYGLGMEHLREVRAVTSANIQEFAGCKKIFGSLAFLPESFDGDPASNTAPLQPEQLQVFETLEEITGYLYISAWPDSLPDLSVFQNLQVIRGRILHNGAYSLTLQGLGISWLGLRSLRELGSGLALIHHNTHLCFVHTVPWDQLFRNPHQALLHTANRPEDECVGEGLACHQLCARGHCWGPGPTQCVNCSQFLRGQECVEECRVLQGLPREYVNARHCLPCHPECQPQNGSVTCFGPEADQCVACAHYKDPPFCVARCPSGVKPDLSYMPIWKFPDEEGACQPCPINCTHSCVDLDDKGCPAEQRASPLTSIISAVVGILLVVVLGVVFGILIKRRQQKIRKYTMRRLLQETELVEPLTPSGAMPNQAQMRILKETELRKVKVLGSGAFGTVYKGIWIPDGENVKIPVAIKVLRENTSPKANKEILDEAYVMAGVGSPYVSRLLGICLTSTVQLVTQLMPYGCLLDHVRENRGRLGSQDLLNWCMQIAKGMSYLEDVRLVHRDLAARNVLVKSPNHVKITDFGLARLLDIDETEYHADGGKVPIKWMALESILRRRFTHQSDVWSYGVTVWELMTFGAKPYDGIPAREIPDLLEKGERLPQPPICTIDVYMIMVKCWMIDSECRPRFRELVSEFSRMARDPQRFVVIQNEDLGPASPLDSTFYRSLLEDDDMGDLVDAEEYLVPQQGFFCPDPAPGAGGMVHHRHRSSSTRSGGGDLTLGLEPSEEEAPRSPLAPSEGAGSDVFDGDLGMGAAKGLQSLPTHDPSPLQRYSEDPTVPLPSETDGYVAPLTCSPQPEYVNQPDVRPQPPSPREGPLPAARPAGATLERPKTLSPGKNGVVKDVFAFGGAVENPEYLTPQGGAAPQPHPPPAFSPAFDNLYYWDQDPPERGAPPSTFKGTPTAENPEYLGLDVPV
Sequence of Insulin-like growth factor 1 receptor (Homo sapiens) (P08069 31-736 limits assumed): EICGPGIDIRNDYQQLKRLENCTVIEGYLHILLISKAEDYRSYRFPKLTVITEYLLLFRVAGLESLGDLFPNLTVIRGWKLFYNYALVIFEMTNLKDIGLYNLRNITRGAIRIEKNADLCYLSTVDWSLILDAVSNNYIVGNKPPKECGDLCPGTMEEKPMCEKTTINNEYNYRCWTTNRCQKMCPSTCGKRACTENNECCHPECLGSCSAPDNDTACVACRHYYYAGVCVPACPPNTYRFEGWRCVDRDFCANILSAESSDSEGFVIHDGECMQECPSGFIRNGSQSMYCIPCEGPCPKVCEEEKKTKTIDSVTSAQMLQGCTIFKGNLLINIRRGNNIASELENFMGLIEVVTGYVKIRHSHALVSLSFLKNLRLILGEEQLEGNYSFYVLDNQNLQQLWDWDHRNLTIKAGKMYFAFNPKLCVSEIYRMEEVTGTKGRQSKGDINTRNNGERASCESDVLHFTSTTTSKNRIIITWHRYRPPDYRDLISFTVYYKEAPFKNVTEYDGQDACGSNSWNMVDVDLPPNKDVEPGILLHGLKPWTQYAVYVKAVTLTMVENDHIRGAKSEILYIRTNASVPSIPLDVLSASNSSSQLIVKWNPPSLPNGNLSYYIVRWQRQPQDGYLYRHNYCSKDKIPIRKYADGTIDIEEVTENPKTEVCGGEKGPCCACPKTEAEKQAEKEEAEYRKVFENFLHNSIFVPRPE
Sequence of Insulin-like growth factor 1 receptor (Homo sapiens) (P08069 741-1367 limits assumed): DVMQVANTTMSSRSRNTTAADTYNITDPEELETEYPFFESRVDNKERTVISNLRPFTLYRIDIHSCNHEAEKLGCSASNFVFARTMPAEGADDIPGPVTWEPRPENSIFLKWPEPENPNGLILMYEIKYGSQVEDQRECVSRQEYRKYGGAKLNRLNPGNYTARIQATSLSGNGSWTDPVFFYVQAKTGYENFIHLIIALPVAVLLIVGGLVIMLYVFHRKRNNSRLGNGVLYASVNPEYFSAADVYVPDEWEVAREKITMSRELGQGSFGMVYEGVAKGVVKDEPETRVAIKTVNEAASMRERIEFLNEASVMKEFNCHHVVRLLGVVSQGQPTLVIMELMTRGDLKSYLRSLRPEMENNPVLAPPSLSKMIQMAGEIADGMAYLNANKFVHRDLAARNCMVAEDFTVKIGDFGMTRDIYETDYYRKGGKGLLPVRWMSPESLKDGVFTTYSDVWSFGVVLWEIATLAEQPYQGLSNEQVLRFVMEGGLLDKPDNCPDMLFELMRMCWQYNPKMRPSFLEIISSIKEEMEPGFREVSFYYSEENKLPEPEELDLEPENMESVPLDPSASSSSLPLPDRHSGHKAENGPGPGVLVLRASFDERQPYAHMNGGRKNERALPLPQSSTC
Sequence of Tyrosine-protein kinase Lck (Homo sapiens) (P06239 2-509 limits assumed): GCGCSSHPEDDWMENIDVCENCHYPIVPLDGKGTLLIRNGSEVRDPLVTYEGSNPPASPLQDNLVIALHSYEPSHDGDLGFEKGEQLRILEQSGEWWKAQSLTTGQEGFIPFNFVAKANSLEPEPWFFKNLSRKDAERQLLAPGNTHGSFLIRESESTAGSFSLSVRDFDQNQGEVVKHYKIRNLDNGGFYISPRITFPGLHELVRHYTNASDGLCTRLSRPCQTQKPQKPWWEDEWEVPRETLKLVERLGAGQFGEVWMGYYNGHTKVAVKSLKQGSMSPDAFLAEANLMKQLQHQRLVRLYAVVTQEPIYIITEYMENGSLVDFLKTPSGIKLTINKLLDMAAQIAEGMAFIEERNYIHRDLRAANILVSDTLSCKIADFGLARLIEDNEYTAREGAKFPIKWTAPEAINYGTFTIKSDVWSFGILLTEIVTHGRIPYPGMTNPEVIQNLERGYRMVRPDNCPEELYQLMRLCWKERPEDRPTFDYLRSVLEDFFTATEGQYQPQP
Sequence of Epidermal growth factor receptor (Homo sapiens) (P00533 whole entry): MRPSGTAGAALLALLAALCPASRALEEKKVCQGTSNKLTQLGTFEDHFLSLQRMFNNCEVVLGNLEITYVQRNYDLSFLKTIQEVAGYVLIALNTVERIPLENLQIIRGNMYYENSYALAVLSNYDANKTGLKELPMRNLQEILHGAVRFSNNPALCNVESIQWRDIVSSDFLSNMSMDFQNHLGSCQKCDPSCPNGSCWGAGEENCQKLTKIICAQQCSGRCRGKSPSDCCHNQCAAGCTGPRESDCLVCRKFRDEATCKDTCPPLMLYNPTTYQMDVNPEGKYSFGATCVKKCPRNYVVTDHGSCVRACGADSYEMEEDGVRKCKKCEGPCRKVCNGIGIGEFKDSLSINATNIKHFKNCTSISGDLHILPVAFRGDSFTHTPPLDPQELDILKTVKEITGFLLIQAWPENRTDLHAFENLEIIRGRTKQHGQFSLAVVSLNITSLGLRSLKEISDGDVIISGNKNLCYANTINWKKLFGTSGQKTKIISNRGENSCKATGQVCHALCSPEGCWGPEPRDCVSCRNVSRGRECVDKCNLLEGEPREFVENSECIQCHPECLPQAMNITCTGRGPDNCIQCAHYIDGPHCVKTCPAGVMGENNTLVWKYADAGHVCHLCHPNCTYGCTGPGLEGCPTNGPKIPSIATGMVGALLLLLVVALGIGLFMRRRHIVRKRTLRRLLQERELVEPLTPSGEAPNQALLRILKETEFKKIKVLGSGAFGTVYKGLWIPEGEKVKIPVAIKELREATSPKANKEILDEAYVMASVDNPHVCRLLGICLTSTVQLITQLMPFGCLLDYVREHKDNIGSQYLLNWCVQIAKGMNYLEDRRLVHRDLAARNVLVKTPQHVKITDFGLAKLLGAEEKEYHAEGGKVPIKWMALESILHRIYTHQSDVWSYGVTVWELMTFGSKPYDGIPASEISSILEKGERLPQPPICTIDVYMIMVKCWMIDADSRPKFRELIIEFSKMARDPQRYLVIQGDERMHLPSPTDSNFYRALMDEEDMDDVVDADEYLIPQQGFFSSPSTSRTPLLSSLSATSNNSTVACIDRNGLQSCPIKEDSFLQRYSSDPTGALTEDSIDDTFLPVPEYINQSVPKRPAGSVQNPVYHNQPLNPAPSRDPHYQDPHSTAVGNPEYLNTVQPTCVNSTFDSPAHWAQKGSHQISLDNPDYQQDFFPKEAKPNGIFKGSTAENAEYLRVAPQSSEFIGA

Row | SMILES | Stability (Liver) [nmol/mg/min] | pIC50 [1] | Stability (Liver microsomes) [nmol/mg/min] | Cmax [2] [µM] | pEC50 (Jurkat) | pIC50 [4] | AUC(0-t) [5] [µM·h] | Tmax [6] [min] | pEC50 (PBMC) | CC50 [7] [nM] | Activity [8] | further results
1 | CCNC(=O)C(N)Cc1cccc(-c2cc3nc(NC)c4ncc(C)n4c3s2)c1 (racemic) | 0.145 | 6.00 | 0.069 | 8.6 | 5.98 | 6.23 | 9.89 | 30 | 6.85 | 71000 |  | solubility [3]: 44 µg/mL (≈ 108 µM)
2 | CNc1nc2cc(-c3cccc(CNC(N)=O)c3)sc2n2c(C)cnc12 | 0.221 | 6.59 | 0.066 | 0.15 | 6.47 | 7.37 | 0.38 | 30 | 7.17 | > 100000 |  | 
3 | CNc1nc2cc(-c3cccc(CN)c3)sc2n2c(C)cnc12 |  | 6.66 |  |  | 5.23 | 8.07 |  |  |  | 19000 | inactive | 
4 | Cc1ccc2nc(NCCN)c3ncc(C)n3c2c1 [BMS-345541] | 0.016 |  | < 0.01 | 1.4 | 4.88 |  | 3.8 | 30 | 6.10 | 100000 |  | concentration at 2.5 h [9]: 7.6 µM; Activity (Mus musculus [10]): 82%; Activity (Mus musculus [11]): 70%; concentration at 5.5 h [12]: 4.2 µM
5 | CNc1nc2cc(-c3ccccc3)sc2n2c(C)cnc12 |  | 5.96 |  |  | 5.87 | 7.57 |  |  |  | > 100000 | inactive | Activity [13]: inactive; Activity [14]: inactive; Activity [15]: inactive; Activity (Homo sapiens [16]): inactive; Activity [17]: inactive; Activity (Homo sapiens [18]): inactive; Activity [19]: inactive; solubility [3]: < 1 µg/mL; Activity [20]: inactive
6 | CNC(=O)C(N)Cc1cccc(-c2cc3nc(NC)c4ncc(C)n4c3s2)c1 (racemic) |  | 6.48 |  |  | 6.33 | 7.44 |  |  |  | 68000 |  | solubility [3]: 42 µg/mL (≈ 106 µM)
7 | CNc1nc2cc(-c3cccc(CC(N)=O)c3)sc2n2c(C)cnc12 | 0.13 | 6.17 | 0.062 | 0.29 | 6.44 | 8.10 | 0.63 | 30 | 7.19 | > 100000 |  | 
8 | CNc1nc2cc(-c3cccc(CCNCC(N)=O)c3)sc2n2c(C)cnc12 | 0.07 | 6.41 | 0.017 | 5.2 | 5.74 | 7.89 | 9.6 | 60 | 5.86 | > 100000 |  | concentration at 2.5 h [9]: 14.3 µM; Activity (Mus musculus [10]): 49%; Activity (Mus musculus [11]): inactive; concentration at 5.5 h [12]: 2.1 µM
9 | Cc1cnc2c(NCCN3CCCCC3)nc3cc(-c4ccccc4)sc3n12 |  | 5.50 |  |  | 4.87 | 7.40 |  |  |  | 15000 | inactive | Activity [13]: inactive; Activity [14]: inactive; Activity [15]: inactive; Activity (Homo sapiens [16]): inactive; Activity [17]: inactive; Activity (Homo sapiens [18]): inactive; Activity [19]: inactive; Activity [20]: inactive
10 | Cc1cnc2c(NCCN)nc3cc(-c4ccccc4)sc3n12 |  | 6.04 |  |  | < 4.00 | 7.66 |  |  |  | 77000 | inactive | Activity [13]: inactive; Activity [14]: inactive; Activity [15]: inactive; Activity (Homo sapiens [16]): inactive; Activity [17]: inactive; Activity (Homo sapiens [18]): inactive; Activity [19]: inactive; Activity [20]: inactive
11 | CNc1nc2cc(-c3cccc(CCNC(N)=O)c3)sc2n2c(C)cnc12 |  | 6.89 |  |  | 6.26 | 7.74 |  |  |  | > 100000 | inactive | 

From ChEMBL document CHEMBL1140018, “Synthesis and structure-activity relationship of imidazo(1,2-a)thieno(3,2-e)pyrazines as IKK-beta inhibitors” (Bioorg Med Chem Lett, 2007)
